According to paper PMC12535076, “Neurotherapeutic effects of Vutiglabridin as a Paraoxonase-2 modulator in preclinical models of Parkinson’s disease” (Molecular Neurodegeneration, 2025):

Experiments:
shPON2-SH-SY5Y cells = assay: Mitochondrial activity in PON2 knockdown (shPON2) and shSCR SH-SY5Y cells treated with MPP+; format: cell-based, human
Procedure: Human SH-SY5Y neuroblastoma cells (ATCC® (CRL-2266™; Manassas, VA, USA) were first cultured in Dulbecco’s Modified Eagle Medium (DMEM)/F12 supplemented with 10% fetal bovine serum (FBS), 100 U/mL penicillin, and 100 µg/mL streptomycin (complete media, CM) at 37 °C with 5% CO2. Cells (5 × 10^4 cells/well) then were cultured in 96-well plates for 24 h followed by incubation in serum-deficient media (SDM, culture media containing 0.5% FBS) for 16 h. Quiescent cells in SDM were incubated with 1 mM MPP^+ or dimethyl sulfoxide (DMSO) vehicle for 24 h, then treated with Vuti at the designated doses for 24 h. The treated cells were harvested according to the purpose and analyzed.
Lentiviral PON2 shRNA (h) (sc-62838) was purchased from Santa Cruz Co. (Santa Cruz, CA, USA). shRNA lentiviral particle transduction was performed according to the manufacturer’s protocol. Total RNA was isolated with a Trizol reagent (Invitrogen, Carlsbad, CA, USA). […] PON2 knockdown was verified by quantitative PCR, and the primers and methods used are described in the supplementary material.
A systemic cell-based mitochondrial function analysis system was established using SH-SY5Y cells in 96-well plates based on fluorescence detection methods as described previously. The assay system covers quantitative assays for methyl thiazyl tetrazolium-mitochondrial dehydrogenase activity (MTT), TMRE-based mitochondrial membrane potential (TMRE), ATP contents, and ROS of cells. […] Fluorescence intensities at 550 nm/580 nm for TMRE, at 510 nm/580 nm MitoSOX, or at 494 nm/522 nm for DCF-DA were normalized by Hoechst intensity at 355 nm/480 nm (Spectramax Gemini EM, Molecular Devices, Sunnyvale, CA, USA).
Endogenous OCR was measured in adherent SH-SY5Y cells using a Seahorse XF-24 Analyzer (Seahorse Bioscience, Billerica, MA, USA) following the manufacturer’s protocol with minor modifications. […] The OCR was calculated from 3-min measurement cycles and normalized to cell number.

[1] = target: T1, PON2 in mouse brain tissue (Mus musculus, UniProt Q62086); assay: Cellular thermal shift assay (CESTA) of PON2 in brain tissue; format: binding
T1 construct: Brain tissue pieces were pulverized under frozen conditions in a mortar with liquid nitrogen; from tissue; host or cells: brain tissue of mice dosed orally with vehicle or Vuti for 5 days
T1 sequence (Q62086 whole entry): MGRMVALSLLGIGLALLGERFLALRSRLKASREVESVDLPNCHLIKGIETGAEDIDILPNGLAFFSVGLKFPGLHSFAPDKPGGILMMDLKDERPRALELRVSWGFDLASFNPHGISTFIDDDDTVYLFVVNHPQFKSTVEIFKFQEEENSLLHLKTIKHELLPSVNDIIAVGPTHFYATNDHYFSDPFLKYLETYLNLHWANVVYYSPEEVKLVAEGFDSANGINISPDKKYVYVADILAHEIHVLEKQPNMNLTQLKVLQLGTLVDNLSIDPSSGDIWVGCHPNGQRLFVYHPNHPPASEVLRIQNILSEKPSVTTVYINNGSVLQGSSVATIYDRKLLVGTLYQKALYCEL
Procedure: Interaction of PON2 and Vuti in mouse brain tissue was evaluated by Cellular Thermal Shift Assay (CESTA®) in vivo [65] (Pelago Bioscience AB, Solna, Sweden). Briefly, mice were orally administered vehicle or Vuti at 50 mg/kg (Vuti 50) or 100 mg/kg (Vuti 100) for 5 days. Brain tissue pieces were pulverized under frozen conditions in a mortar with liquid nitrogen. Equal amounts of tissue powder were placed into 8 or 12 separate PCR strip tubes for each set of the treated tissues and kept frozen until heat challenged. Pre-heated 60 µl HBSS buffer was added to the tubes and samples were immediately subjected to an 8 or 12-step heat challenge for 3 min between 37 °C and 59 °C. Samples were then snap-frozen in liquid nitrogen and lysed by freeze-thawing. After the first round of freeze thawing 1% Brij 35 was added to the samples and the samples were incubated with shaking for 20 min at 4 °C before the two last rounds of freeze thawing. After centrifugation at 20 000 x g for 20 min, 35 µl of the supernatant was mixed with 17,5 µl gel loading buffer (NuPAGE LDS sample buffer, Thermo Fisher Scientific, Waltham, MA, USA). Total protein lysate (6 µg) was separated on 12% SDS-PAGE gels. […] Western Blot detected PON2 protein (abcam, ab183718) normalized to SOD-1, a temperature stable protein band observed in the full protein gel detection with house-keeping gene.

CCOc1ccc(C2COc3c(ccc4c3CCC(C)(C)O4)C2)c(O)c1 (centres unmarked) [Vuti, Vutiglabridin]
MPP+-induced mitochondrial damages in shSCR cells (shPON2-SH-SY5Y cells; control scrambled shRNA cells, 1 mM MPP+ then 1 nM Vuti): significantly restored
OCR (basal respiration, ATP turnover rate, maximum respiratory capacity) in shPON2 cells (shPON2-SH-SY5Y cells; shPON2 cells, 1 mM MPP+ 20 h then 1 nM Vuti 24 h): failed to restore
effects on mitochondria function (MTT, ATP content, TMRE, DCF-DA-ROS, MitoSOX-ROS) in shPON2 cells (shPON2-SH-SY5Y cells; shPON2 infected cells, 1 mM MPP+ 20 h then 1 nM Vuti 24 h): considerably reduced or almost completely abolished
increase of the Tm of PON2 over vehicle group ([1]; Vuti 50 mg/kg for 5 days (Vuti 50)): approximately 1.3 °C
increase of the Tm of PON2 over vehicle group ([1]; Vuti 100 mg/kg for 5 days (Vuti 100)): ~1.4 °C
